Legend:
MDSCs = experiment: GROα-mediated MDSC migration; type: cell-based, mouse; conditions: 0.1, 1 and 10 μM, 100 ng/ml GROα, 12 hours
Description: Using the of method of Katoh 2013 to induce and isolate MDSCs, male BALBc mice were given a single intraperitoneal injection of azoxymethane (AOM, 10 mg/kg). Seven days later, these mice were given 4 cycles of water and water containing 1.25% dextran sulfate sodium (DSS). One cycle consisted of providing mice with regular drinking water for 7 days, followed by 1.25% aqueous DSS for 7 days, followed by regular drinking water for 7 days. MDSCs were isolated from femurs and blood of AOM/DSS-treated BALBc mice using the Myeloid-Derived Suppressor Cell Isolation Kit (Miltenyi Biotec) after lysis of red blood cells (RBC) according to the manufacturer's instructions. GROα (CXCL1) was placed in the bottom chamber of a 24-well plate at a concentration of 100 ng/ml. MDSCs isolated from blood of AOM/DSS-treated BALBc mice were seeded at a density of 1×10^6/well in the upper chamber (3 m, BD Falcon). After incubation for 12 hours, migrated cells were quantified by flow cytometry using COUNTBRIGHT™ Absolute Counting Beads (Molecular Probes). To evaluate the effect of SX-682 on GROα-mediated MDSC migration, aqueous DMSO solutions of SX-682 were added to the MDSC-seeded wells prior to migration. The test concentrations of SX-682 were 0.1, 1 and 10 μM, and the DMSO concentration was <1%.

[1] = test system: TRIA mouse model of melanoma; experiment: TRIA mouse model of melanoma
Description: Treatment regimens were started following tumor manifestation. SX-682 was given orally via medicated feed, at an approximate dose of 10 mg/day/mouse. CP was administered once weekly via intraperitoneal injection at a dose of 50 mg/kg.

[2] = test system: 60 human tumor cell line panel; experiment: 60 human tumor cell line panel proliferation (SRB); type: cell-based; conditions: 0.01-100 μM, 48 h
Description: The chemokine CXCL8 and its receptors CXCR1 and CXCR2 have been identified as important mediators of cellular proliferation for a number of tumor cell types.
The human tumor cell lines of the cancer screening panel were grown in RPMI 1640 medium containing 5% fetal bovine serum and 2 mM L-glutamine. […] After cell inoculation, the microtiter plates were incubated at 37° C., 5% CO2, 95% air and 100% relative humidity for 24 h prior to addition of SX-682.
After 24 h, two plates of each cell line are fixed in situ with TCA, to represent a measurement of the cell population for each cell line at the time of drug addition (Tz). […]
Following drug addition, the plates were incubated for an additional 48 h at 37° C., 5% CO2, 95% air, and 100% relative humidity. […] Bound stain was subsequently solubilized with 10 mM TRIS, and the absorbance was read on an automated plate reader at a wavelength of 515 nm. […] Using the seven absorbance measurements (time zero, (Tz), control growth, (C), and test growth in the presence of drug at the five concentration levels (Ti)), the percentage growth was calculated at each of the drug concentrations levels. Percentage growth inhibition was calculated as: (Ti−Tz)/(C−Tz)×100 for concentrations for which Ti>/=Tz (Ti−Tz)/Tz×100 for concentrations for which Ti<Tz.
Three dose response parameters were calculated for each experimental agent. […]

[3] = test system: B16-F10 syngeneic mouse model of melanoma; experiment: B16-F10 syngeneic mouse model of melanoma; type: in vivo
Description: The B16-F10 mouse model is an established model of melanoma, Overwijk, 2001, CURR PROTOC IMMUNOL, Chapter 20: Units 20-21 (herein incorporated by reference), which was used to evaluate the effect of SX-682 alone and in combination with anti-PD1 antibody. B16-F10 mouse melanoma cells were cultured, then mice were injected with 0.5×10^6 B16-F10 cells on day 0, and treatment was initiated on day 18. Mice were treated with vehicle (control), SX-682 alone (50 mg/kg twice daily, oral), anti-PD-1 alone (100 μg twice weekly, i.p.), or SX-682 in combination with anti-PD-1 (N=4-5 per cohort). SX-682 was used as a spray dried dispersion (Formulation Example 1), and was administered to mice via oral gavage as a suspension in 0.5% aq. methylcellulose. […] Data and error bars are the mean±SE.

CXCR2 = biological target: T1, CXCR2 (Homo sapiens, UniProt P25025); experiment: Wash-resistant inhibition of CXCL8-mediated calcium flux, CXCR2-transfected RBL cells; type: cell-based; conditions: 30 min incubation at 0.4, 2, 10 μM, then washout
T1 construct: expressed in transfected cells
T1 sequence (P25025 1-360): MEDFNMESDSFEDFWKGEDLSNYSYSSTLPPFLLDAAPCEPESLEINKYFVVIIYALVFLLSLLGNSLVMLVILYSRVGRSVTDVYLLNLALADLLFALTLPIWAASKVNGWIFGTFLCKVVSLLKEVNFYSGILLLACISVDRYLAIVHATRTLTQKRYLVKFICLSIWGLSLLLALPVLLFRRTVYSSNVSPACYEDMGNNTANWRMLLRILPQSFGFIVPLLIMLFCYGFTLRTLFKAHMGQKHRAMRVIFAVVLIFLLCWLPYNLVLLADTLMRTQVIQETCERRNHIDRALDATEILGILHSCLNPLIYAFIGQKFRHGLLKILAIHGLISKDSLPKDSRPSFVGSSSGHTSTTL
Description: In order to test this hypothesis, RBL cells (10^7 cells/ml) stably transfected with either CXCR1 or CXCR2 were (1) incubated with SX-682 at various concentrations for 30 minutes at 37° C., (2) washed and resuspended in assay buffer (RPMI/2% serum) at room temperature, and (3) assayed for CXCL8-mediated calcium response at time points up to 12 h after inhibitor washout. The concentrations of SX-682 tested were 0 (positive control), 0 (negative control), 0.4, 2, and 10 μM. At 30 minutes before each time point, a 56.25 μl aliquot of the cells were removed and loaded for 30 minutes at room temperature in the dark with FLIPR™ 3 reagent (262.5 μl per tube). Following FLIPR™ 3 incubation, cells were assayed for CXCL8 mediated intracellular calcium release as described in Pharmacology Example 1.

[4] = test system: isolated human neutrophils; experiment: CXCL8-mediated intracellular calcium flux in isolated human neutrophils; type: cell-based; conditions: Neutrophil, 25 nM CXCL8, mean ±SE
Description: Cells were incubated for 30 min at 37° C. […] The test compound or DMSO (control) was added again at the same concentrations that were used during cell loading.
The maximum change in fluorescence, expressed in arbitrary units over baseline (Max-Min), was used to determine the CXCL8 response.

O=C(Nc1ccc(F)cc1)c1cnc(SCc2cc(OC(F)(F)F)ccc2B(O)O)nc1 [SX-682, 2-(2-boronic acid-5-trifluoromethoxy-benzylsulfanyl)-pyrimidine-5-carboxylic acid (4-fluoro-phenyl)-amide]
GROα-mediated MDSC migration (MDSCs): effectively inhibit GROα-mediated MDSC migration in a dose-dependent manner | tumor growth, SX-682 alone ([1]; 10 mg/day/mouse oral feed): significantly slowed tumor growth | complete remission (zero tumor volume), SX-682 combination with CP ([1]; SX-682 10 mg/day/mouse oral feed + CP 50 mg/kg weekly i.p.): 5 of 11 | tumor cell proliferation [2]: directly affect the proliferation of human tumor cells | tumor growth, SX-682 monotherapy ([3]; 50 mg/kg twice daily, oral): significantly slowed tumor growth | tumor growth, SX-682 in combination with anti-PD-1 ([3]; SX-682 50 mg/kg twice daily oral + anti-PD-1 100 μg twice weekly i.p.): significantly better than either therapy alone | time inhibition of calcium flux is sustained after washout (CXCR2): at least 12 hours | IC50 [4]: 55 ± 6 nM
